Experimental data: paper PMC8035258 (ChemMedChem, 2021)

What follows are molecules tested against Mitochondrial respiratory complex II (Mus musculus, UniProt Q8K2B3+Q9CQA3+Q9CXV1+Q9CZB0) (assay: Complex II inhibition assay). Conditions: 100 μM; mouse liver mitochondria; mean ±SD of n = 4.
Chain of Mitochondrial respiratory complex II (Q8K2B3 43-664): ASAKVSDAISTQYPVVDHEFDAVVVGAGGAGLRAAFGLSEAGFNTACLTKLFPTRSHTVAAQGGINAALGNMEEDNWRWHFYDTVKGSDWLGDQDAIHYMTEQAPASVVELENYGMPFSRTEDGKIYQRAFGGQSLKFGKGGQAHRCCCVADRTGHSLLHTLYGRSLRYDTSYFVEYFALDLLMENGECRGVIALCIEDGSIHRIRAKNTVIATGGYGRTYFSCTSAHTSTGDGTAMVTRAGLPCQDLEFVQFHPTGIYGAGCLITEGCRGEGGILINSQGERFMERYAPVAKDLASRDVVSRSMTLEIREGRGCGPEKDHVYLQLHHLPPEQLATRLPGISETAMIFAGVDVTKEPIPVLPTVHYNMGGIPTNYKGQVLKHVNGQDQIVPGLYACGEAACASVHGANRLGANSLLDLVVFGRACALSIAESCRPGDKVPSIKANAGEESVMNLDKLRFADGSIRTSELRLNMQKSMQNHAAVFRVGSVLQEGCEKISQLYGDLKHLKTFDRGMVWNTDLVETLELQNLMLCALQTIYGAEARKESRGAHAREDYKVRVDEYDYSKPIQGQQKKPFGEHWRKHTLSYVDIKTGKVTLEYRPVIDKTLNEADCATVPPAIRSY
Chain of Mitochondrial respiratory complex II (Q9CQA3 31-282): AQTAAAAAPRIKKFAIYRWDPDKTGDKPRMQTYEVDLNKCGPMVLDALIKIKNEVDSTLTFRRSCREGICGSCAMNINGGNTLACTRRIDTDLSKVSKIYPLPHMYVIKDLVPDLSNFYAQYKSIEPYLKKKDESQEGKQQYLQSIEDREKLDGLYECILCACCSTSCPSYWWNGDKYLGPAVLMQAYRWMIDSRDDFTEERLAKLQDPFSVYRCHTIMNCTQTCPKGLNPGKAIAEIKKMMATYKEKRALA
Chain of Mitochondrial respiratory complex II (Q9CZB0 30-169): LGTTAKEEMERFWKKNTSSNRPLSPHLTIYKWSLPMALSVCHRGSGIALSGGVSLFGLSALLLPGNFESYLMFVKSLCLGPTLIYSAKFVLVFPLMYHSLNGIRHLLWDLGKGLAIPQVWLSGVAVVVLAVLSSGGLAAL
Chain of Mitochondrial respiratory complex II (Q9CXV1 57-159): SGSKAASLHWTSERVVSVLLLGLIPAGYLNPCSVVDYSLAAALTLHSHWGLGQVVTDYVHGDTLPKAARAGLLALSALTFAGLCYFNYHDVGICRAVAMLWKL
Assay type: biochemical
With `O=S1(=O)N=C(NCc2ccc(Cl)cc2)Nc2ccccc21` [Compound 16d, 3-((4-Chlorobenzyl)amino)-4H-benzo[e][1,2,4]thiadiazine 1,1-dioxide] the “% Inhibition CII (100 μM)” value was “inactive”.

Same assay, conditions: read-out: % Inhibition CII (100 μM), 100 μM; mouse liver mitochondria; mean ±SD of n = 4
`COc1ccc(CNC2=NS(=O)(=O)c3cc(F)ccc3N2)cc1` [Compound 20a, 7-Fluoro-3-((4-methoxybenzyl)amino)-4H-benzo[e][1,2,4]thiadiazine 1,1-dioxide] showed an inhibition at 100 µM of 0%. With `C=CCNC1=NS(=O)(=O)c2ccc(Cl)cc2N1` [Compound 32b, 3-(Allylamino)-6-chloro-4H-benzo[e][1,2,4]thiadiazine 1,1-dioxide] the inhibition at 100 µM was 0%. `Cc1ccc(CNC2=NS(=O)(=O)c3cc(F)ccc3N2)cc1` [Compound 27a, 7-Fluoro-3-((4-methylbenzyl)amino)-4H-benzo[e][1,2,4]thiadiazine 1,1-dioxide] was tested, and the inhibition at 100 µM was 23 ± 9.9%. Molecule `CSC1=NS(=O)(=O)c2ccccc2N1C` [Compound 42d, 4-Methyl-3-(methylthio)-4H-benzo[e][1,2,4]thiadiazine 1,1-dioxide] has an inhibition at 100 µM of 0%. Molecule `CSC1=NS(=O)(=O)c2cc(F)ccc2N1C` [Compound 42a, 7-Fluoro-4-methyl-3-(methylthio)-4H-benzo[e][1,2,4]thiadiazine 1,1-dioxide] has an inhibition at 100 µM of 6 ± 13.4%. `O=S1(=O)N=C(NCc2ccccc2)Nc2ccc(F)cc21` [Compound 21a, 3-(Benzylamino)-7-fluoro-4H-benzo[e][1,2,4]thiadiazine 1,1-dioxide] was tested, and the inhibition at 100 µM was 0%. For `O=S1(=O)N=C(NCc2ccc(F)cc2)Nc2ccc(F)cc21` [Compound 17a, 7-Fluoro-3-((4-fluorobenzyl)amino)-4H-benzo[e][1,2,4]thiadiazine 1,1-dioxide], the inhibition at 100 µM was 1 ± 6.2%. For `O=S1(=O)N=C(NCc2ccc(F)cc2)Nc2cc(Cl)ccc21` [Compound 17b, 6-Chloro-3-((4-fluorobenzyl)amino)-4H-benzo[e][1,2,4]thiadiazine 1,1-dioxide], the inhibition at 100 µM was 0%. For `O=S1(=O)N=C(NCc2ccc(Cl)cc2)Nc2ccccc21` [Compound 16d, 3-((4-Chlorobenzyl)amino)-4H-benzo[e][1,2,4]thiadiazine 1,1-dioxide], the inhibition at 100 µM was 0%. Work on `O=S1(=O)N=C(NCCc2ccccc2)Nc2ccc(F)cc21` [Compound 18a, 7-Fluoro-3-(phenethylamino)-4H-benzo[e][1,2,4]thiadiazine 1,1-dioxide] yielded an inhibition at 100 µM of 4 ± 15.5%. Molecule `CC(C)NC1=NS(=O)(=O)c2cc(Br)ccc2N1` [Compound 14c, 7-Bromo-3-isopropylamino-4H-1,2,4-benzothiadiazine 1,1-dioxide] has an inhibition at 100 µM of 0%. Work on `O=S1(=O)N=C(NCc2ccc(C(F)(F)F)cc2)Nc2ccc(F)cc21` [Compound 25a, 7-Fluoro-3-((4-(trifluoromethyl)benzyl)amino)-4H-benzo[e][1,2,4]thiadiazine 1,1-dioxide] yielded an inhibition at 100 µM of 6 ± 15.7%. `O=S1(=O)N=C(NCc2ccccc2)Nc2ccccc21` [Compound 21d, 3-(Benzylamino)-4H-benzo[e][1,2,4]thiadiazine 1,1-dioxide] was tested, and the inhibition at 100 µM was 0%. `O=S1(=O)N=C(NCCc2cccc(C(F)(F)F)c2)Nc2ccc(F)cc21` [Compound 41a, 7-Fluoro-3-((3-(trifluoromethyl)phenethyl)amino)-4H-benzo[e][1,2,4] thiadiazine 1,1-dioxide] gave an inhibition at 100 µM of 20 ± 5.2%. With `O=S1(=O)NC(=S)Nc2ccccc21` [Compound 12d, 2H-benzo[e][1,2,4]thiadiazine-3(4H)-thione 1,1-dioxide] the inhibition at 100 µM was 2 ± 5.8%. Work on `O=S1(=O)N=C(NCc2ccc(SC(F)(F)F)cc2)Nc2ccc(F)cc21` [Compound 38a, 7-Fluoro-3-((4-((trifluoromethyl)thio)benzyl)amino)-4H-benzo[e] [1,2,4]thiadiazine 1,1-dioxide] yielded an inhibition at 100 µM of 23 ± 12.3%. In the case of `CC(C)NC1=NS(=O)(=O)c2ccccc2N1` [Compound 14d, 3-(Isopropylamino)-4H-benzo[e][1,2,4]thiadiazine 1,1-dioxide], the inhibition at 100 µM is reported as 0%. Molecule `O=S1(=O)N=C(NCc2ccccc2C(F)(F)F)Nc2ccc(Br)cc21` [Compound 35c, 7-Bromo-3-((2-(trifluoromethyl)benzyl)amino)-4H-benzo[e][1,2,4]thiadiazine 1,1-dioxide] has an inhibition at 100 µM of 29 ± 5.9%. With `COc1cccc(CNC2=NS(=O)(=O)c3cc(Br)ccc3N2)c1` [Compound 28c, 7-Bromo-3-((3-methoxybenzyl)amino)-4H-benzo[e][1,2,4]thiadiazine 1,1-dioxide] the inhibition at 100 µM was 24 ± 5.2%. In the case of `O=S1(=O)N=C(NCCc2ccccc2)Nc2cc(Cl)ccc21` [Compound 18b, 6-Chloro-3-(phenethylamino)-4H-benzo[e][1,2,4]thiadiazine 1,1-dioxide], the inhibition at 100 µM is reported as 19 ± 22.6%. `CCNC1=NS(=O)(=O)c2ccccc2N1` [Compound 19d, 3-(Ethylamino)-4H-benzo[e][1,2,4]thiadiazine 1,1-dioxide] gave an inhibition at 100 µM of 0%. With `O=S1(=O)N=C(NC2CCCC2)Nc2ccc(Br)cc21` [Compound 22c, 7-Bromo-3-(cyclopentylamino)-4H-benzo[e][1,2,4]thiadiazine 1,1-dioxide] the inhibition at 100 µM was 25 ± 7.8%. For `CC(C)NC1=NS(=O)(=O)c2ccccc2N1C` [Compound 43d, 3-(Isopropylamino)-4-methyl-4H-benzo[e][1,2,4]thiadiazine 1,1-dioxide], the inhibition at 100 µM was 0%. With `Nc1ccc(CNC2=NS(=O)(=O)c3cc(Br)ccc3N2)cc1` [Compound 31c, 3-((4-Aminobenzyl)amino)-7-bromo-4H-benzo[e][1,2,4]thiadiazine 1,1-dioxide] the inhibition at 100 µM was 9 ± 6%. `O=C1Nc2ccc(F)cc2S(=O)(=O)N1` [Compound 11a, 7-Fluoro-3-oxo-3,4-dihydro-2H-1,2,4-benzothiadiazine 1,1-dioxide] was tested, and the inhibition at 100 µM was 6 ± 1.5%. Molecule `O=S1(=O)N=C(NCCc2ccc(Cl)cc2)Nc2ccc(F)cc21` [Compound 37a, 3-((4-Chlorophenethyl)amino)-7-fluoro-4H-benzo[e][1,2,4]thiadiazine 1,1-dioxide] has an inhibition at 100 µM of 34 ± 18.4%. `COc1ccccc1CNC1=NS(=O)(=O)c2ccc(Cl)cc2N1` [Compound 26b, 6-Chloro-3-((2-methoxybenzyl)amino)-4H-benzo[e][1,2,4]thiadiazine 1,1-dioxide] gave an inhibition at 100 µM of 0%. Molecule `C=CCNC1=NS(=O)(=O)c2ccccc2N1` [Compound 32d, 3-(Allylamino)-4H-benzo[e][1,2,4]thiadiazine 1,1-dioxide] has an inhibition at 100 µM of 2 ± 12.3%. In the case of `O=S1(=O)N=C(NCc2ccc(OC(F)(F)F)cc2)Nc2ccc(F)cc21` [Compound 30a, 7-Fluoro-3-((4-(trifluoromethoxy)benzyl)amino)-4H-benzo[e][1,2,4] thiadiazine 1,1-dioxide], the inhibition at 100 µM is reported as 2 ± 6.9%. Work on `O=S1(=O)N=C(NCc2ccc(F)cc2)Nc2ccccc21` [Compound 17d, 3-((4-Fluorobenzyl)amino)-4H-benzo[e][1,2,4]thiadiazine 1,1-dioxide] yielded an inhibition at 100 µM of 7 ± 9.9%. Molecule `COc1ccc(CNC2=NS(=O)(=O)c3ccccc3N2)cc1` [Compound 20d, 3-((4-Methoxybenzyl)amino)-4H-benzo[e][1,2,4]thiadiazine 1,1-dioxide] has an inhibition at 100 µM of 0%. Molecule `O=S1(=O)N=C(NCCCc2ccccc2)Nc2ccccc21` [Compound 23d, 3-((3-Phenylpropyl)amino)-4H-benzo[e][1,2,4]thiadiazine 1,1-dioxide] has an inhibition at 100 µM of 0%. Molecule `CSC1=NS(=O)(=O)c2ccc(Cl)cc2N1` [Compound 13b, 6-Chloro-3-methylsulfanyl-4H-1,2,4-benzothiadiazine 1,1-dioxide] has an inhibition at 100 µM of 24 ± 0.7%. With `O=S1(=O)N=C(NCc2ccccc2)Nc2ccc(Br)cc21` [Compound 21c, 3-(Benzylamino)-7-bromo-4H-benzo[e][1,2,4]thiadiazine 1,1-dioxide] the inhibition at 100 µM was 36 ± 9%. `CSC1=NS(=O)(=O)c2cc(F)ccc2N1` [Compound 13a, 7-Fluoro-3-methylsulfanyl-4H-1,2,4-benzothiadiazine 1,1-dioxide] showed an inhibition at 100 µM of 0%. Work on `CC(C)NC1=NS(=O)(=O)c2ccc(Cl)cc2N1` [Compound 14b, 6-Chloro-3-isopropylamino-4H-1,2,4-benzothiadiazine 1,1-dioxide] yielded an inhibition at 100 µM of 0%. `O=S1(=O)N=C(NC2CCCC2)Nc2ccc(F)cc21` [Compound 22a, 7-Fluoro-3-(cyclopentylamino)-4H-benzo[e][1,2,4]thiadiazine 1,1-dioxide] showed an inhibition at 100 µM of 1 ± 4.7%. `O=S1(=O)N=C(NCc2ccc(F)cc2)Nc2ccc(Br)cc21` [Compound 17c, 7-Bromo-3-((4-fluorobenzyl)amino)-4H-benzo[e][1,2,4]thiadiazine 1,1-dioxide] gave an inhibition at 100 µM of 35 ± 9.9%. Molecule `O=S1(=O)NC(=S)Nc2ccc(F)cc21` [Compound 12a, 7-Fluoro-3-thioxo-3,4-dihydro-2H-1,2,4-benzothiadiazine 1,1-dioxide] has an inhibition at 100 µM of 0%. In the case of `O=C1Nc2ccccc2S(=O)(=O)N1` [Compound 11d, 2H-benzo[e][1,2,4]thiadiazin-3(4H)-one 1,1-dioxide], the inhibition at 100 µM is reported as 0%. In the case of `O=C1Nc2ccc(Br)cc2S(=O)(=O)N1` [Compound 11c, 7-Bromo-3-oxo-3,4-dihydro-2H-1,2,4-benzothiadiazine1,1-dioxide], the inhibition at 100 µM is reported as 0%. `CC(C)C(C)NC1=NS(=O)(=O)c2ccc(Cl)cc2N1` (stereo not drawn) [Compound 15b, 6-Chloro-3-((3-methylbutan-2-yl)amino)-4H-benzo[e][1,2,4]thiadiazine 1,1-dioxide] gave an inhibition at 100 µM of 0%. With `CC(C)NC1=NS(=O)(=O)c2cc(F)ccc2N1` [Compound 14a, 7-Fluoro-3-isopropylamino-4H-1,2,4-benzothiadiazine 1,1-dioxide] the inhibition at 100 µM was 4 ± 6.9%. With `CC(C)C(C)NC1=NS(=O)(=O)c2ccccc2N1` (stereo not drawn) [Compound 15d, 3-((3-Methylbutan-2-yl)amino)-4H-benzo[e][1,2,4]thiadiazine 1,1-dioxide] the inhibition at 100 µM was 0%. `CCNC1=NS(=O)(=O)c2cc(F)ccc2N1` [Compound 19a, 3-(Ethylamino)-7-fluoro-4H-benzo[e][1,2,4]thiadiazine 1,1-dioxide] gave an inhibition at 100 µM of 0%. In the case of `Cc1ccc(CNC2=NS(=O)(=O)c3cc(Br)ccc3N2)cc1` [Compound 27c, 7-Bromo-3-((4-methylbenzyl)amino)-4H-benzo[e][1,2,4]thiadiazine 1,1-dioxide], the inhibition at 100 µM is reported as 29 ± 6.2%. Work on `COc1ccc(CCNC2=NS(=O)(=O)c3cc(Br)ccc3N2)cc1` [Compound 34c, 7-Bromo-3-((4-methoxyphenethyl)amino)-4H-benzo[e][1,2,4]thiadiazine 1,1-dioxide] yielded an inhibition at 100 µM of 17 ± 3.3%.
